Data published in paper PMC13046382, “Peptidoglycan recycling is critical for cell division, cell wall integrity, and β-lactam resistance in Caulobacter crescentus” (eLife, 2026).

Experiments:
NagZ = target: T1, NagZ (Caulobacter vibrioides, UniProt A0A0H3C9G9); assay: preincubation with NagZ, then coupled AmiR step and LC-MS; assay type: biochemical; conditions: 10 µM NagZ, 50 mM HEPES, 200 mM NaCl, 10% glycerol, pH 7.2, 37 °C, 16 hr
T1 construct: gene CCNA_02085; His6-SUMO fusion expressed in E. coli Rosetta(DE3)pLysS, tag cut by SUMO protease
T1 sequence (A0A0H3C9G9 entry or part of it): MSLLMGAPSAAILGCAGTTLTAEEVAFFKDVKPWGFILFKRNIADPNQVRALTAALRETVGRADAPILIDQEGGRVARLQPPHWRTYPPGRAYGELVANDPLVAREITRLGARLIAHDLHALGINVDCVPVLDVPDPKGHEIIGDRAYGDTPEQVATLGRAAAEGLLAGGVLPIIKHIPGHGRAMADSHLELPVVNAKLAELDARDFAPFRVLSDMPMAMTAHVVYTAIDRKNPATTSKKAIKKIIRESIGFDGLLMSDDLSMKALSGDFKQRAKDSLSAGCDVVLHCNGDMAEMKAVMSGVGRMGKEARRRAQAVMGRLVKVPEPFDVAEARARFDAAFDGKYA

AmiR = target: T2, AmiR (Caulobacter vibrioides, UniProt A0A0H3CAA9); assay: HPLC of reaction products; assay type: biochemical; conditions: 20 mM HEPES-NaOH, 50 mM NaCl, 1 mM MgCl2, pH 7.5, 37 °C, 16 hr; mixture of anhydro-muropeptides from Slt70-digested sacculi
T2 construct: gene CCNA_02650; His6-SUMO fusion expressed in E. coli Rosetta(DE3)pLysS, tag cut by SUMO protease
T2 sequence (A0A0H3CAA9 entry or part of it): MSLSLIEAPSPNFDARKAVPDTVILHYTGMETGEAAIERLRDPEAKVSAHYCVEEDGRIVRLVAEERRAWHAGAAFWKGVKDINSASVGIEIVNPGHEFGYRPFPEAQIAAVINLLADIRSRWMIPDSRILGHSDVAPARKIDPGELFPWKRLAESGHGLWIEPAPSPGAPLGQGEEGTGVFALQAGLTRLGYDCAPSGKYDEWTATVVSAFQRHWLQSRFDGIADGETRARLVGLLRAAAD

PBP3 = target: T3, PBP3 (Caulobacter vibrioides, UniProt B8H0A0); assay: competition with bocillin-FL labelling, SDS-PAGE fluorescence; assay type: cell-based; conditions: covalent, crude membranes in PBS
T3 construct: gene ftsI; native protein in crude membrane fraction, gel band
T3 sequence (B8H0A0 1-589): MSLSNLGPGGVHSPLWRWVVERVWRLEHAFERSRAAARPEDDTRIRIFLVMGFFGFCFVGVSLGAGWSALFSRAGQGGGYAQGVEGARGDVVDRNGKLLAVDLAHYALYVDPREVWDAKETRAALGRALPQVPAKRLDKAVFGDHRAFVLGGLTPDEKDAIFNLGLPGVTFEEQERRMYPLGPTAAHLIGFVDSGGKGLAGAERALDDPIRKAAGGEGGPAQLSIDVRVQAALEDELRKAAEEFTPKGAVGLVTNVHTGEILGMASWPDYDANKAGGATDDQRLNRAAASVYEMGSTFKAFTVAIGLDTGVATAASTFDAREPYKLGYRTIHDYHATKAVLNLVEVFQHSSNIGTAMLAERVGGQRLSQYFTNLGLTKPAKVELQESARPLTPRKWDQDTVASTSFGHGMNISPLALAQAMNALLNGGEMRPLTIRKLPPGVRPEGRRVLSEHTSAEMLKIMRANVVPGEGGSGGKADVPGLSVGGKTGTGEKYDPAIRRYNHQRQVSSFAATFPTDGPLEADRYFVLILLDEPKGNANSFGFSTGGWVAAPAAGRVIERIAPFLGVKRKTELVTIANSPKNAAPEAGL

CrbA = target: T4, CrbA (Caulobacter vibrioides, UniProt A0A0H3C8K5); assay: as above; assay type: cell-based; conditions: covalent; crude membranes in PBS, 1-100 µg/mL ampicillin for 2 hr at room temperature, active-site serine
T4 construct: native protein in crude membrane fraction, gel band
T4 sequence (A0A0H3C8K5 entry or part of it): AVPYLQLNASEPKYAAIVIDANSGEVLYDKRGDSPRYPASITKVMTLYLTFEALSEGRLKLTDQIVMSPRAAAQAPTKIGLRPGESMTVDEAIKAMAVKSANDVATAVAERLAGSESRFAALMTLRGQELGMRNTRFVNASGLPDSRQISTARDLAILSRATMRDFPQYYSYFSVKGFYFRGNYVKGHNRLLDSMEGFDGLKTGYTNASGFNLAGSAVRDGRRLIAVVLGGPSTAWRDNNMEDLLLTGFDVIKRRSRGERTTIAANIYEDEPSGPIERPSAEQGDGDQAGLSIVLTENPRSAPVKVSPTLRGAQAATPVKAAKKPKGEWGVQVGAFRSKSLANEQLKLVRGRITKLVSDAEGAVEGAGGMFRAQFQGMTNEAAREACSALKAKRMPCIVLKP

CC(=O)N[C@H]1[C@H](O[C@H]2[C@H](O[C@H](C)C(=O)N[C@@H](C)C(=O)N[C@H](CCC(=O)N[C@@H](CCC[C@@H](N)C(=O)O)C(=O)N[C@H](C)C(=O)O)C(=O)O)[C@@H](NC(C)=O)[C@@H]3OC[C@H]2O3)O[C@H](CO)[C@@H](O)[C@@H]1O [GlcNAc–anhMurNAc-tetrapeptide]
preincubation with NagZ, then coupled AmiR step and LC-MS (NagZ): substrate anhMurNAc-tetrapeptide, generated by preincubating purified GlcNAc–anhMurNAc-tetrapeptide with NagZ | HPLC of reaction products (AmiR): AmiR efficiently hydrolyzed tetrapeptide-containing fragments

CC1=C(C(=O)O)N2C(=O)[C@@H](NC(=O)[C@H](N)c3ccccc3)[C@H]2SC1 [cephalexin]
competition with bocillin-FL labelling, SDS-PAGE fluorescence (PBP3; 5 µg/mL cefalexin for 2 hr at room temperature): The labeling of PBP3 and some bifunctional PBPs was also abolished by preincubation with cephalexin

CC1(C)S[C@@H]2[C@H](NC(=O)[C@H](N)c3ccccc3)C(=O)N2[C@H]1C(=O)O [ampicillin]
competition with bocillin-FL labelling, SDS-PAGE fluorescence (PBP3; 1-100 µg/mL ampicillin for 2 hr at room temperature, active-site serine): Among the ampicillin targets identified were the essential, cell division-specific monofunctional transpeptidase PBP3 | competition with bocillin-FL labelling, SDS-PAGE fluorescence (CrbA): all but one of them (PbpX) remained unlabeled
